These compounds were tested on VEGF-induced HUVEC proliferation (assay: VEGF-induced HUVEC proliferation reaction evaluation system (cell proliferation inhibitory action test, WST-8)). Conditions: HUVEC 2×10^3 cells per well in 100 μL; 5 μL of 20 μg/mL test compound solution per well; 5 μL of 400 ng/mL VEGF solution; WST-8 three days after VEGF, absorbance at 450 nm; control 1.0% DMSO.
Assay type: cell-based, human
Protocol: In order to find the usefulness of the compound of the present invention, a test for inhibitory effects of the compound of the present invention on cell proliferation was carried out using a VEGF-induced HUVEC proliferation reaction evaluation system (HUVEC: human umbilical vein endothelial cells), which is a method of evaluating antiangiogenic effects of drugs, and the antiangiogenic effects of the compound were evaluated.
As one of the widely used methods of evaluating antiangiogenic effects of drugs, a cell proliferation inhibitory action test using a VEGF-induced HUVEC proliferation reaction evaluation system has been reported in Cancer Res., 59, 99-106 (1999). According to the method described in the above-mentioned document, a cell proliferation inhibitory action test of the compounds of the present invention was carried out, and the cell proliferation inhibition rate was calculated. Then, the antiangiogenic effect of each of the compounds of the present invention was evaluated using the obtained rate as an index.
Each test compound was dissolved in dimethyl sulfoxide (hereinafter abbreviated as DMSO), and the obtained solution was diluted with a commercially available phosphate buffer solution (hereinafter abbreviated as PBS), whereby a 20 μg/mL test compound solution was prepared.
HUVEC was suspended in F12K medium containing 0.5% fetal bovine serum (hereinafter abbreviated as FBS), whereby a 2×10^4 cells/mL HUVEC suspension was prepared.
VEGF was dissolved in PBS containing 0.1% bovine serum albumin, and the obtained solution was diluted with F12K medium containing 0.5% FBS, whereby a 400 ng/mL VEGF solution was prepared.
1) The HUVEC suspension was inoculated in an amount of 100 μL into each well of a 96-well plate coated with type I collagen (2×10^3 cells per well).
2) One day after the inoculation, the test compound solution was added in an amount of 5 μL per well.
3) One hour after the addition of the test compound solution, the VEGF solution was added in an amount of 5 μL per well.
4) Three days after the addition of the VEGF solution, WST-8 assay reagent (Dojin Chemical Co., Ltd.) was added in an amount of 10 μL per well.
5) After 3 hours, the above-mentioned plate was attached to an absorptiometer (Multilabel Counter ARVO), and an absorbance at 450 nm of suspension in each well (hereinafter referred to as a test compound suspension) was measured.
6) A test was carried out in the same manner as in the above 1) to 5) except that 1.0% DMSO was used instead of the test compound solution. The result was used as a control.
Incubation was carried out under conditions of 37° C., 5% carbon dioxide and […] in an incubator throughout the above-mentioned test steps.
The cell proliferation inhibition rate (%), which was used as an index of an antiangiogenic effect, was calculated using the following calculation equation.
(Calculation Equation) Cell proliferation inhibition rate (%)=100−{(Absorbance of test compound suspension−A)/(absorbance of control−A)}×100 A: Absorbance of only cell suspension (cells+medium) (Test Results and Discussion)

**Q.** Which “Cell proliferation inhibition rate (%)” value does the source give for Cc1cc(C)cc(NC(=O)c2cccnc2SCc2cc[n+]([O-])c3ccccc23)c1 [Compound 1-35, N-(3,5-Dimethylphenyl)-2-(1-oxoquinolin-4-ylmethylthio)pyridine-3-carboxamide] here?
**A.** Its value is 100%.

Same assay, conditions: Homo sapiens, 72 h; HUVEC 2×10^3 cells per well in 100 μL; 5 μL of 20 μg/mL test compound solution per well; 5 μL of 400 ng/mL VEGF solution; WST-8 three days after VEGF, absorbance at 450 nm; control 1.0% DMSO; read-out: Cell proliferation inhibition rate (%)

**Q.** O=C(Nc1ccc(Cl)cc1)c1cccnc1SCc1ccnc2ccccc12 [Compound 1-1, N-(4-Chlorophenyl)-2-(quinolin-4-ylmethylthio)pyridine-3-carboxamide] was tested. Which inhibition at 20 µg/mL (stock) did it give?
**A.** The inhibition at 20 µg/mL (stock) was 100%.

**Q.** For Cc1cc(C)cc(NC(=O)c2cccnc2SCc2ccnc3ccccc23)c1 [Compound 1-3, N-(3,5-Dimethylphenyl)-2-(quinolin-4-ylmethylthio)pyridine-3-carboxamide], which inhibition at 20 µg/mL (stock) is on record?
**A.** The inhibition at 20 µg/mL (stock) was 100%.

**Q.** For COc1ccc(CCNC(=O)c2ccccc2SCc2ccnc3ccccc23)cc1 [Compound 1-26, N-[2-(4-Methoxyphenyl)ethyl]-2-(quinolin-4-ylmethylthio)benzamide], which inhibition at 20 µg/mL (stock) is on record?
**A.** Its inhibition at 20 µg/mL (stock) is 97%.

**Q.** Which inhibition at 20 µg/mL (stock) does the source give for COc1cc2nccc(CSc3ncccc3C(=O)Nc3cc(C)cc(C)c3)c2cc1OC [Compound 1-30, 2-(6,7-Dimethoxyquinolin-4-ylmethylthio)-N-(3,5-dimethylphenyl)pyridine-3-carboxamide] here?
**A.** The inhibition at 20 µg/mL (stock) was 70%.

**Q.** For COc1cc2nccc(CSc3ncccc3C(=O)Nc3cccc(Cl)c3)c2cc1OC [Compound 1-31, N-(3-Chlorophenyl)-2-(6,7-dimethoxyquinolin-4-ylmethylthio)pyridine-3-carboxamide], which inhibition at 20 µg/mL (stock) is on record?
**A.** The inhibition at 20 µg/mL (stock) was 88%.

**Q.** How did the inhibition at 20 µg/mL (stock) turn out when Cc1cccc(NC(=O)c2cccnc2SCc2ccnc3cc(Cl)c(Cl)cc23)c1 [Compound 1-33, 2-(6,7-Dichloroquinolin-4-ylmethylthio)-N-(3-methylphenyl)pyridine-3-carboxamide] was run?
**A.** Its inhibition at 20 µg/mL (stock) is 100%.

**Q.** Cc1cc(C)cc(NC(=O)c2cccnc2SCc2ccc3ncccc3c2)c1 [Compound 1-36, N-(3,5-Dimethylphenyl)-2-(quinolin-6-ylmethylthio)pyridine-3-carboxamide] was tested. Which inhibition at 20 µg/mL (stock) did it give?
**A.** The inhibition at 20 µg/mL (stock) was 100%.

**Q.** With O=C(Nc1cccc(Cl)c1)c1cccnc1SCc1ccc2ncccc2c1 [Compound 1-38, N-(3-Chlorophenyl)-2-(quinolin-6-ylmethylthio)pyridine-3-carboxamide] as the compound, how does the inhibition at 20 µg/mL (stock) read?
**A.** The inhibition at 20 µg/mL (stock) was 100%.

**Q.** With Cc1cc(C)cc(NC(=O)c2cccnc2SCc2cnc3ccccc3c2)c1 [Compound 1-39, N-(3,5-Dimethylphenyl)-2-(quinolin-3-ylmethylthio)pyridine-3-carboxamide] as the compound, how does the inhibition at 20 µg/mL (stock) read?
**A.** Its inhibition at 20 µg/mL (stock) is 100%.

**Q.** How did the inhibition at 20 µg/mL (stock) turn out when O=C(Nc1ccc(OC(F)(F)F)cc1)c1cccnc1SCc1ccnc2ccccc12 [Compound 2-1, 2-(Quinolin-4-ylmethylthio)-N-(4-trifluoromethoxyphenyl)pyridine-3-carboxamide] was run?
**A.** Its inhibition at 20 µg/mL (stock) is 100%.

**Q.** Cc1cc(C)cc(NC(=O)c2ccccc2SCc2ccnc3ccccc23)c1 [Compound 2-2, N-(3,5-Dimethylphenyl)-2-(quinolin-4-ylmethylthio)benzamide] was tested. Which inhibition at 20 µg/mL (stock) did it give?
**A.** The inhibition at 20 µg/mL (stock) was 100%.

**Q.** Which inhibition at 20 µg/mL (stock) does the source give for O=C(Nc1ccc(Cl)cc1)c1ccccc1SCc1ccnc2ccccc12 [Compound 2-3, N-(4-Chlorophenyl)-2-(quinolin-4-ylmethylthio)benzamide] here?
**A.** Its inhibition at 20 µg/mL (stock) is 100%.

**Q.** How did the inhibition at 20 µg/mL (stock) turn out when Cc1cc(C)cc(NC(=O)c2sccc2SCc2ccnc3ccccc23)c1 [Compound 2-8, N-(3,5-Dimethylphenyl)-3-(quinolin-4-ylmethylthio)thiophene-2-carboxamide] was run?
**A.** The inhibition at 20 µg/mL (stock) was 100%.

Reference: patent publication US7897774B2, “Cyclic compound having quinolylalkylthio group” (Santen Pharmaceutical Co., Ltd., priority 2005, dated 2011)
